Measured values published in patent US4383114A, “Adenosine deaminase resistant antiviral purine arabinonucleosides” (priority 1981, dated 1983).
In brackets after ≈: the same amount, converted by molar mass. Several values for one entry are separate records, joined by “and”; a condition that tells them apart may be missing. Identical values can stand only once.

How the values were obtained:
[1] = toxicity in uninfected (toxicity control) or treated mice; assay type: in vivo, Random-bred Swiss mice, female; details: for Avg. Body Wt. on Day 0 / Avg. Body Wt. on Day 7 / Avg. Body Wt. on Day 14 / Avg. Body Wt. on Day 21 / Mortality: No. Dead/Total No. of Mice / mortality at 504 h: uninfected toxicity controls; for mortality at 504 h: mouse, in vivo, ip
Experimental: River Breeding Laboratories, Inc.
cellulose (HPC) at four different
centrations so that a single daily
volume of 0.01 ml/gm of body
The drugs were administered once
for 7 days beginning 4 hours after […]

[2] = test system: calf intestinal mucosa adenosine deaminase (Sigma Chemical Company); test: adenosine deaminase activity on Ara-A, Cyclaradine and Aristeromycin (Example 14); assay type: in vitro ADME; details: 1×10^-4 M, pH 7.5, 17.75 units/ml enzyme
From the text: The deaminated products were further identified by thin-layer chromatography using authentic samples for reference.

adenosine deaminase [3] = details: background statement; cited from earlier work
[4] = test system: calf intestinal adenosine deaminase (type III, Sigma); test: resistance to deamination by adenosine deaminase (Example 11); details: for deamination by adenosine deaminase: conditions under which ara-A is completely deaminated
[5] = cytotoxicity, growing P-388 mouse lymphoid leukemia cells in presence of drug; details: p-388 cells
adenosine deaminase [6] = test: inhibition of enzymatic deamination of ara-A or adenosine; assay type: biochemical, calf; details: substrates ara-A or adenosine
[7] = test system: herpes simplex virus (HSV) type 1 (strain HF); assay type: cell-based, herpes simplex virus type 1
[8] = test system: vaccinia virus (VV) (Strain Lederle Chorioallantoic); test: microbe, parasite or virus in culture; assay type: cell-based
HSV and VV = test: organism not typed; assay type: cell-based

With Nc1ncnc2c1ncn2[C@@H]1O[C@H](CO)[C@@H](O)[C@@H]1O [ara-A, reference compound] the “mortality and weight loss” value ([1]; 755.3 mg/kg/day, qd 1-7) was “Significant mortality and severe weight loss”, the “Avg. Body Wt. on Day 0” value ([1]; Ara-A 125 mg/kg/day) was 21.7 gm and the “Avg. Body Wt. on Day 7” value ([1]; Ara-A 125 mg/kg/day) was 25.4 gm. For the same compound, the “Avg. Body Wt. on Day 14” value ([1]; Ara-A 125 mg/kg/day) was 27.3 gm, the “Avg. Body Wt. on Day 21” value ([1]; Ara-A 125 mg/kg/day) was 29.5 gm and the “Mortality: No. Dead/Total No. of Mice” value ([1]; Ara-A 125 mg/kg/day) was 0/10. For the same compound, the “Avg. Body Wt. on Day 0” value ([1]; Ara-A 250 mg/kg/day) was 21.7 gm, the “Avg. Body Wt. on Day 7” value ([1]; Ara-A 250 mg/kg/day) was 25.1 gm and the “Avg. Body Wt. on Day 14” value ([1]; Ara-A 250 mg/kg/day) was 26.6 gm. For the same compound, the “Avg. Body Wt. on Day 21” value ([1]; Ara-A 250 mg/kg/day) was 29.1 gm, the “Mortality: No. Dead/Total No. of Mice” value ([1]; Ara-A 250 mg/kg/day) was 0/10 and the “toxicity of dose levels” value ([1]; ara-A 125 to 250 mg/kg/day, qd 1-7) was “non-toxic”. For the same compound, the mortality at 504 h ([1]; Ara-A 125 mg/kg/day) was 0%, the mortality at 504 h ([1]; Ara-A 250 mg/kg/day) was 0% and the “approx. LD10” value ([1]; qd 1-7 schedule, mice) was roughly 600 mg/kg/day. The “conversion to deaminated product” value ([2]; 2 hours, 25° C) was “complete conversion”, the “deamination by adenosine deaminase” value (adenosine deaminase [3]) was “rapidly deaminated” and the deamination rate [4] was 1 μmole/min/unit of enzyme. The “deamination by adenosine deaminase” value [4] was “completely deaminated” and the CC50 [5] was 10 µM.
In the case of Nc1ncnc2c1ncn2[C@@H]1C[C@H](CO)[C@@H](O)[C@H]1O [Aristeromycin], the “conversion to deaminated product” value ([2]; 2 hours, 25° C) is reported as “complete conversion”.
With Nc1ncnc2c1ncn2[C@@H]1C[C@H](CO)[C@@H](O)[C@@H]1O (relative stereo) [cyclaradine, 9-[α-(2α,3β-Dihydroxy-4α(hydroxymethyl)cyclopentyl)]adenine] the “inhibition of enzymatic deamination” value (adenosine deaminase [6]) was “did not inhibit”, the “Virus Rating (VR)” value [7] was 2.2 and 3.5 and the EC50 ([8]; Orthopoxvirus vaccinia, HEp-2, read-out: MED50 (minimum drug dose required for 50% inhibition of virus-induced cpe)) was 9 µg/mL (≈ 33.9 µM). For the same compound, the “Virus Rating (VR)” value ([8]; vaccinia virus, HEp-2 cells, VR ≥ 1.0 definite, 0.5-0.9 marginal to moderate, < 0.5 no apparent antiviral activity) was 1.5 and 1.7, the “weight loss or apparent toxicity” value ([1]; 750 mg/kg/day (equimolar to ara-A 755.3 mg/kg/day)) was “no significant weight loss or apparent toxicity” and the “lethal toxicity for uninfected animals” value ([1]; 900 mg/kg/day, qd 1-7, uninfected) was “apparently not lethally toxic”. The “Avg. Body Wt. on Day 0” value ([1]; C-Ara-A 112.5 mg/kg/day) was 21.8 gm, the “Avg. Body Wt. on Day 7” value ([1]; C-Ara-A 112.5 mg/kg/day) was 24.5 gm and the “Avg. Body Wt. on Day 14” value ([1]; C-Ara-A 112.5 mg/kg/day) was 26.5 gm. For the same compound, the “Avg. Body Wt. on Day 21” value ([1]; C-Ara-A 112.5 mg/kg/day) was 28.5 gm, the “Mortality: No. Dead/Total No. of Mice” value ([1]; C-Ara-A 112.5 mg/kg/day) was 0/5 and the “Avg. Body Wt. on Day 0” value ([1]; C-Ara-A 225 mg/kg/day) was 21.8 gm. The “Avg. Body Wt. on Day 7” value ([1]; C-Ara-A 225 mg/kg/day) was 24.4 gm, the “Avg. Body Wt. on Day 14” value ([1]; C-Ara-A 225 mg/kg/day) was 26.8 gm and the “Avg. Body Wt. on Day 21” value ([1]; C-Ara-A 225 mg/kg/day) was 29.3 gm. For the same compound, the “Mortality: No. Dead/Total No. of Mice” value ([1]; C-Ara-A 225 mg/kg/day) was 0/5, the “Avg. Body Wt. on Day 0” value ([1]; C-Ara-A 450 mg/kg/day) was 21.6 gm and the “Avg. Body Wt. on Day 7” value ([1]; C-Ara-A 450 mg/kg/day) was 22.6 gm. For the same compound, the “Avg. Body Wt. on Day 14” value ([1]; C-Ara-A 450 mg/kg/day) was 25.9 gm, the “Avg. Body Wt. on Day 21” value ([1]; C-Ara-A 450 mg/kg/day) was 28.3 gm and the “Mortality: No. Dead/Total No. of Mice” value ([1]; C-Ara-A 450 mg/kg/day) was 0/5. The “Avg. Body Wt. on Day 0” value ([1]; C-Ara-A 900 mg/kg/day) was 21.8 gm, the “Avg. Body Wt. on Day 7” value ([1]; C-Ara-A 900 mg/kg/day) was 22.5 gm and the “Avg. Body Wt. on Day 14” value ([1]; C-Ara-A 900 mg/kg/day) was 25.3 gm. For the same compound, the “Avg. Body Wt. on Day 21” value ([1]; C-Ara-A 900 mg/kg/day) was 28 gm, the “Mortality: No. Dead/Total No. of Mice” value ([1]; C-Ara-A 900 mg/kg/day) was 0/5 and the “toxicity of dose levels” value ([1]; cyclaradine 112.5 to 450 mg/kg/day, qd 1-7) was “non-toxic”. For the same compound, the “tolerability compared with ara-A” value ([1]; higher dose levels, mice) was “obviously better tolerated than ara-A”, the mortality at 504 h ([1]; C-Ara-A 112.5 mg/kg/day) was 0% and the mortality at 504 h ([1]; C-Ara-A 225 mg/kg/day) was 0%. The mortality at 504 h ([1]; C-Ara-A 450 mg/kg/day) was 0%, the mortality at 504 h ([1]; C-Ara-A 900 mg/kg/day) was 0% and the “conversion to deaminated product” value ([2]; overnight incubation) was “no conversion to deaminated product was detected”. The “antiviral activity against HSV and VV” value (HSV and VV) was “highly significant antiviral activity”, the EC50 (HSV and VV; read-out: approximate MED50) was roughly 9 µg/mL (≈ 33.9 µM) and the “deamination by adenosine deaminase” value [4] was “no detectable deamination”. The CC50 [5] was 10 µM.
